Test [1] deals with promastigotes of L. amazonensis. The experiment in a line: Scanning and transmission electron microscopy of treated promastigotes. The class given is cell-based. From the text:
The concentrations of compounds selected for the study of structural and ultrastructural damage were those corresponding to IC50, ½ IC50, and ¼ IC50 for compound NV8 (reported in this study) and the previously reported compound VATR 131 [21]. The procedure for the treatment of cultures was the same as that described above for the in vitro tests on promastigotes of L. amazonensis. Two negative controls were used: a DMSO-treated culture (0.1%) and an untreated culture.
At the end of the exposure to the compounds, the parasites were washed once with PBS and immediately fixed with 2.5% glutaraldehyde in PBS for 1 h at room temperature. After a thorough wash with PBS, the parasites were fixed with 1% OsO4 in PBS at 4 °C for 1 h and then washed with PBS. The parasites were dehydrated in increasing concentrations of ethanol. Drying was carried out at the critical point of CO2 in a Samdry 780 apparatus (USA). Next, they were evaporated with gold in a Denton Vacuum Desk (USA). Finally, the samples were observed and micrographed using a JSM 6510LB-JEOL microscope at 30 keV.
Promastigotes were washed with PBS and fixed with 2.5% glutaraldehyde solution for 1 h at 4 °C. They were then fixed with a solution of 1% OsO4 in the same buffer at 4 °C and in darkness for 1 h. Promastigotes were washed with PBS at RT and dehydrated in an ethanolic solution in increasing order by up to 100%. They were then included in the epoxy resin using specific molds for polymerization and maintained at 60 °C for a minimum period of 72 h. The blocks were cut with an ultramicrotome (Reichert Jung, Austria) into thin sections. The slices were stained with uranyl acetate and lead citrate and subsequently micrographed using a JEM 1400 transmission electron microscope (JEOL, Ltd., Tokyo, Japan).

The test system of test [2] is L. amazonensis promastigotes. Details: method as in PMID 37915499. To be noted: promastigotes of L. amazonensis; previously reported compound; cited from earlier work.

SMILES strings stand for the structures.

Usually IC50 stands for the point on the concentration scale where inhibition reaches its midpoint. Turning to `CC(=O)OCCn1c2ccc([N+](=O)[O-])cc2c(=O)n1Cc1ccccc1` [VATR 131], in test [1] (L. amazonensis promastigotes treated at IC50, ½ IC50, ¼ IC50), the “Structural damage, scanning electron microscopy” value is on record as “an alteration in the morphology of the parasites was observed from the lowest concentration of the compound”. Also, the “Ultrastructural damage, transmission electron microscopy” value in test [1] (L. amazonensis promastigotes, 72 h of incubation at IC50, ½ IC50, ¼ IC50) is “very similar to those observed for NV8 at concentrations equivalent to ¼ IC50 and ½ IC50”. Also, the IC50 in test [2] was 2.13 µM.

These data come from publication PMC11477194, “3-Alkoxy-1-Benzyl-5-Nitroindazole Derivatives Are Potent Antileishmanial Compounds” (International Journal of Molecular Sciences, 2024).
